Results as given in patent US9434711B2 (Janssen Pharmaceutica, NV, priority 2007, dated 2016).

Molecular target: canine TRPM8 (Canis lupus familiaris, UniProt Q1A7N1)
Experiment: In Vitro Canine TRPM8 Functional Assay (Ca2+ fluorescence, icilin activation)
Format: cell-based
Conditions: HEK293 cells stably expressing canine TRPM8, icilin activation; for IC50: average of two or more determinations, read-out: IC50; for inhibition at 0.2 µM: 0.2 μM compound, read-out: % Inh @ 0.2
Outline: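 HEK293 cells stably expressing canine TRPM8 were loaded with Calcium 3 dye (35 min at 37 °C, then 25 min at room temperature). Compound was added and Ca2+ fluorescence was read for 5 min before icilin at a concentration giving about 80% maximal response. EC50/IC50 came from eight-point dose-response curves, quadruplicate wells.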

Sequence of canine TRPM8 (Q1A7N1 1-1104): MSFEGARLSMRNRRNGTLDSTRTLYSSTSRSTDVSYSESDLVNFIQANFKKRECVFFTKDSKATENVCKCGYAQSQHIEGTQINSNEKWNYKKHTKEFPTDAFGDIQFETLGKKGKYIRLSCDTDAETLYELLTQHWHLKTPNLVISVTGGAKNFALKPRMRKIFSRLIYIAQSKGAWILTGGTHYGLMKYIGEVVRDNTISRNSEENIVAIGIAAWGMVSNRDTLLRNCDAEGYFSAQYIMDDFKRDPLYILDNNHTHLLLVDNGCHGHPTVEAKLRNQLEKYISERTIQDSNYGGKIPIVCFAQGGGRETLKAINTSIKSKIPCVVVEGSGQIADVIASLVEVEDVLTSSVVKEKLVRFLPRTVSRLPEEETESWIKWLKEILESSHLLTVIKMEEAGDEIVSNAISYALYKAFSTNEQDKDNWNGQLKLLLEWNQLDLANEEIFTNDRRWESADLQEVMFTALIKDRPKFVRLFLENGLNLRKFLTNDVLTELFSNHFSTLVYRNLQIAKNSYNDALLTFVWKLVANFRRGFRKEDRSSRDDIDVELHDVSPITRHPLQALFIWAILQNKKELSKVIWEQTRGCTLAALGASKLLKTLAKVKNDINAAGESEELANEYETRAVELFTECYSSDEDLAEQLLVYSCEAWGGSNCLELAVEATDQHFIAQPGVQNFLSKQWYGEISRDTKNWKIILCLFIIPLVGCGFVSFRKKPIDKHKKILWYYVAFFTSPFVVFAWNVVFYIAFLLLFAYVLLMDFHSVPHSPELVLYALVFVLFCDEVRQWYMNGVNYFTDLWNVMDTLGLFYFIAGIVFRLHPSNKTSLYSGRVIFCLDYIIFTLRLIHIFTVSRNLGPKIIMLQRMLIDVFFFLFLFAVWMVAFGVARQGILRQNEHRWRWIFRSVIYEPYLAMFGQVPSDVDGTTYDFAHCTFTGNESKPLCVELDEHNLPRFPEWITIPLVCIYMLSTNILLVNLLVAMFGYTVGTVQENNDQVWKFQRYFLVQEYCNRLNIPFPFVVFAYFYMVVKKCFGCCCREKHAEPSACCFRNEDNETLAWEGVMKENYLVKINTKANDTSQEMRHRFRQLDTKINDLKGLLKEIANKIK

| SMILES | IC50 | inhibition at 0.2 µM |
| --- | --- | --- |
| Cc1c(N(CCCCC(F)(F)F)S(=O)(=O)c2cnccc2-c2nnn[nH]2)sc2ccccc12 [Compound 806, N-(3-Methyl-benzo[b]thiophen-2-yl)-N-(5,5,5-trifluoro-pentyl)-4-(1H-tetrazol-5-yl)-pyridin-3-ylsulfonamide] | 13 nM | – |
| Cc1c(N(CCCCC(F)(F)F)S(=O)(=O)c2ccc(-c3nnn[nH]3)nc2)sc2ccccc12 [Compound 806] | – | 102% |
| Cc1c(N(CCC2CC2)S(=O)(=O)c2ccc(-c3noc(=O)[nH]3)nc2)sc2ccccc12 [Compound 807] | 6 nM | 103% |
| Cc1c(N(Cc2ccc(OC(F)(F)F)cc2)S(=O)(=O)c2cnccc2-c2noc(=O)[nH]2)sc2ccccc12 [Compound 808, N-(3-Methyl-benzo[b]thiophen-2-yl)-N-(4-trifluoromethoxy-benzyl)-4-(5-oxo-4,5-dihydro-[1,2,4]oxadiazol-3-yl)-pyrid-3-ylsulfonamide] | 0.7 nM | – |
| Cc1c(N(Cc2ccc(OC(F)(F)F)cc2)S(=O)(=O)c2ccc(-c3noc(=O)[nH]3)nc2)sc2ccccc12 [Compound 808] | – | 102% |
| Cc1c(N(Cc2ccc(OC(F)(F)F)cc2)S(=O)(=O)c2ccc(-c3nsc(=O)[nH]3)cc2)sc2ccccc12 [Compound 810, N-(3-Methyl-benzo[b]thiophen-2-yl)-N-(4-trifluoromethoxy-benzyl)-4-(5-oxo-4,5-dihydro-[1,2,4]thiadiazol-3-yl)-benzenesulfonamide] | 1 nM | 102% |
| Cc1c(N(CCCCC(F)(F)F)S(=O)(=O)c2ccc(-c3n[nH]c(=O)[nH]3)cc2)sc2ccccc12 [Compound 811, N-(3-Methyl-benzo[b]thiophen-2-yl)-N-(5,5,5-trifluoro-pentyl)-4-(5-oxo-4,5-dihydro-1H-[1,2,4]triazol-3-yl)-benzenesulfonamide] | 3.7 nM | 103% |
| O=S(=O)(c1ccccc1)N(Cc1ccc(F)c(C(F)(F)F)c1)c1sc2ncccc2c1Cl [Compound 813, N-(3-Chloro-thieno[2,3-b]pyridin-2-yl)-N-(4-fluoro-3-trifluoromethyl-benzyl)-benzenesulfonamide] | 28 nM | 90% |
| O=C(O)c1cccc(S(=O)(=O)N(Cc2ccc(F)c(C(F)(F)F)c2)c2sc3ncccc3c2Cl)c1 [Compound 814, N-(3-Chloro-thieno[2,3-b]pyridin-2-yl)-N-(4-fluoro-3-trifluoromethyl-benzyl)-3-carboxy-benzenesulfonamide] | 138 nM | 80% |
| O=C(O)c1ccc(S(=O)(=O)N(CCC(F)(F)F)c2sc3ncccc3c2Cl)cc1 [Compound 815, N-(3-Chloro-thieno[2,3-b]pyridin-2-yl)-N-(3,3,3-trifluoro-propyl)-4-carboxy-benzenesulfonamide] | – | 44% |
| COC(=O)c1cccc(S(=O)(=O)N(Cc2ccc(F)c(C(F)(F)F)c2)c2sc3ncccc3c2Cl)c1 [Compound 816, N-(3-Chloro-thieno[2,3-b]pyridin-2-yl)-N-(4-fluoro-3-trifluoromethyl-benzyl)-3-carbomethoxy-benzenesulfonamide] | – | 15% |
| O=S(=O)(c1ccccc1)N(CCCF)c1cc2ccccc2s1 [Compound 817, N-(Benzo[b]thiophen-2-yl)-N-(3-fluoro-propyl)-benzenesulfonamide] | 73 nM | 80% |
| Cc1c(N(Cc2ccccc2)S(=O)(=O)c2ccc(F)c(F)c2)sc2ccccc12 [Compound 825, N-(Benzyl)-N-(3-methyl-benzo[b]thiophen-2-yl)-3,4-difluoro-benzenesulfonamide] | 25 nM | 89% |
| Cc1c(N(Cc2ccc(F)cc2)S(=O)(=O)c2ccc(F)c(F)c2)sc2ccccc12 [Compound 826, N-(4-Fluoro-benzyl)-N-(3-methyl-benzo[b]thiophen-2-yl)-3,4-difluoro-benzenesulfonamide] | 24 nM | 97% |
| CCS(=O)(=O)N(Cc1ccc(F)c(OC)c1)c1sc2ccccc2c1C(C)O (centres unmarked) [Compound 827, N-(4-Fluoro-3-methoxybenzyl)-N-[3-(1-hydroxyethyl)-benzo[b]thiophen-2-yl]-ethanesulfonamide] | 6.6 nM | 101% |
| CCS(=O)(=O)N(Cc1ccc(F)c(OC)c1)c1cc2ccccc2s1 [Compound 828, N-(Benzo[b]thiophen-2-yl)-N-(4-fluoro-3-methoxy-benzyl)-ethanesulfonamide] | 42.7 nM | 88% |
| CCS(=O)(=O)N(Cc1ccnc(F)c1)c1sc2ccccc2c1C [Compound 829, N-(2-Fluoro-pyridin-4-ylmethyl)-N-(3-methyl-benzo[b]thiophen-2-yl)-ethanesulfonamide] | 23 nM | 100% |
| O=S(=O)(c1cc(Br)ccc1Br)N(Cc1ccc(F)c(F)c1)c1sc2ccccc2c1CO [Compound 834, 2,5-Dibromo-N-(3,4-difluoro-benzyl)-N-(3-hydroxymethyl-benzo[b]thiophen-2-yl)-benzenesulfonamide] | 123 nM | 87% |
| CCS(=O)(=O)N(Cc1ccnc(F)c1)c1sc2ccccc2c1C(C)O (centres unmarked) [Compound 835, N-(2-Fluoropyridin-4-ylmethyl)-N-[3-(1-hydroxyethyl)-benzo[b]thiophen-2-yl]-ethanesulfonamide] | 55.1 nM | 89% |
| CCS(=O)(=O)N(Cc1ccnc(F)c1)c1sc2ccccc2c1C(C)(C)O [Compound 836, N-(2-Fluoro-pyridin-4-ylmethyl)-N-[3-(1-hydroxy-1-methyl-ethyl)-benzo[b]thiophen-2-yl]-ethanesulfonamide] | 24 nM | 96% |
| CCS(=O)(=O)N(Cc1ccc(F)c(OC)c1)c1sc2ccccc2c1C(C)=O [Compound 837, N-(3-Acetyl-benzo[b]thiophen-2-yl)-N-(4-fluoro-3-methoxy-benzyl)-ethanesulfonamide] | 15 nM | 103% |
| CCS(=O)(=O)N(Cc1ccc(F)c(OC)c1)c1sc2ccccc2c1C(C)(C)O [Compound 838, N-(4-Fluoro-3-methoxybenzyl)-N-[3-(1-hydroxy-1-methyl-ethyl)-benzo[b]thiophen-2-yl]-ethanesulfonamide] | – | 101% |
| CCS(=O)(=O)N(Cc1ccc(F)c(C(F)(F)F)c1)c1sc2ccccc2c1C(C)OC (centres unmarked) [Compound 839, N-(4-Fluoro-3-trifluoromethyl-benzyl)-N-[3-(1-methoxy-ethyl)-benzo[b]thiophen-2-yl]-ethanesulfonamide] | 15.9 nM | 101% |
| CCS(=O)(=O)N(Cc1c(F)cnc(F)c1F)c1sc2ccccc2c1C [Compound 840, N-(3-Methyl-benzo[b]thiophen-2-yl)-N-(2,3,5-trifluoro-pyridin-4-ylmethyl)-ethanesulfonamide] | 98.1 nM | 71.1% |

The remaining lines, values ahead:

| IC50 | inhibition at 0.2 µM | SMILES |
| --- | --- | --- |
| 7.6 nM | 103% | Cc1c(N(CCCCC(F)(F)F)S(=O)(=O)c2ccc(-c3nn(C)c(=O)[nH]3)cc2)sc2ccccc12 [Compound 812, N-(3-Methyl-benzo[b]thiophen-2-yl)-N-(5,5,5-trifluoro-pentyl)-4-(1-methyl-5-oxo-4,5-dihydro-1H-[1,2,4]triazol-3-yl)-benzenesulfonamide] |
| 62 nM | 92% | Cc1c(N(CCF)S(=O)(=O)c2ccccc2)sc2ccccc12 [Compound 818, N-(2-Fluoro-ethyl)-N-(3-methyl-benzo[b]thiophen-2-yl)-benzenesulfonamide] |
| 21 nM | 98% | Cc1c(N(CCCF)S(=O)(=O)c2ccccc2)sc2ccccc12 [Compound 819, N-(3-Fluoro-propyl)-N-(3-methyl-benzo[b]thiophen-2-yl)-benzenesulfonamide] |
| 49 nM | 97% | COC(C)c1c(N(CCCF)S(=O)(=O)c2ccccc2)sc2ccccc12 (centres unmarked) [Compound 822, N-(3-Fluoro-propyl)-N-[3-(1-methoxy-ethyl)-benzo[b]thiophen-2-yl]-benzenesulfonamide] |
| 22 nM | 102% | COC(=O)c1ccc(S(=O)(=O)N(CCCF)c2sc3ccccc3c2C)cc1 [Compound 823, N-(3-Fluoro-propyl)-N-(3-methyl-benzo[b]thiophen-2-yl)-4-carbomethoxy-benzenesulfonamide] |
| 38 nM | 98% | Cc1c(N(CCCF)S(=O)(=O)c2ccc(C(=O)O)cc2)sc2ccccc12 [Compound 824, N-(3-Fluoropropyl)-N-(3-methyl-benzo[b]thiophen-2-yl)-4-carboxy-benzenesulfonamide] |
| 15 nM | 102% | CC(C)(O)c1c(N(CCCF)S(=O)(=O)c2ccccc2)sc2ccccc12 [Compound 830, N-(3-Fluoropropyl)-N-[3-(1-hydroxy-1-methyl-ethyl)-benzo[b]thiophen-2-yl]-benzenesulfonamide] |
| 50 nM | 91% | Cc1c(N(CCCF)S(=O)(=O)c2ccc(F)c(F)c2)sc2ccccc12 [Compound 831, N-(3-Fluoro-propyl)-N-(3-methyl-benzo[b]thiophen-2-yl)-3,4-difluoro-benzenesulfonamide] |
| 88 nM | 76% | COCc1c(N(CCCF)S(=O)(=O)c2ccccc2)sc2ccccc12 [Compound 832, N-(3-Fluoro-propyl)-N-(3-methoxymethyl-benzo[b]thiophen-2-yl)-benzenesulfonamide] |
| 13 nM | 102% | CC(=O)c1c(N(CCCF)S(=O)(=O)c2ccccc2)sc2ccccc12 [Compound 833, N-(3-Acetyl-benzo[b]thiophen-2-yl)-N-(3-fluoro-propyl)-benzenesulfonamide] |
| – | 55% | Cc1c(N(CCF)S(=O)(=O)c2ccc(F)c(F)c2)sc2ccccc12 [Compound 841, N-(2-Fluoro-ethyl)-N-(3-methyl-benzo[b]thiophen-2-yl)-3,4-difluoro-benzenesulfonamide] |
